For one experiment, the system named is freely-feeding rats. The following applies: central administration, 4 hour time period; cited from earlier work.
In a further experiment the test system is orexin receptors. Description: Rat sleep/EEG studies, central administration. The experiment is classed as in vivo. The note with it: central administration at the onset of the normal sleep period; largely at the expense of paradoxical sleep and slow wave sleep 2. The source says:
Therefore antagonists of its receptor may be useful in the treatment of sleep disorders including insomnia.

No end group written: not given here.

As to “orexin-A: ligand for the orexin-1 receptor, an agonist of the orexin receptors; 33-residue peptide, sequence in the 1st table (QPLPDCCRQKTCSCRLYELLHGAGNHAAGILTL-NH2; not fully specified (residue 1, bridges); ends and bridges not checked; UniProt O43612 34-66, looked up)”, in the experiment with freely-feeding rats, the “increase in food intake over control rats receiving vehicle” value was “approximately four-fold”. Besides, in the experiment with orexin receptors, the effect on arousal entry is reported as “dose-related increase in arousal”.

These data come from patent US6699879B1, “Phenyl urea and phenyl thiourea derivatives as orexin receptor antagonists” (SmithKline Beecham p.l.c., priority 1999, dated 2004).
